The values that follow come from patent publication US20260327246A1, “FUSED RING KRAS INHIBITORS FOR TREATING DISEASE” (BLOSSOMHILL THERAPEUTICS, INC., priority 2023, published 2026).

For one assay, the system named is GP2D (KRAS G12D). Kind of assay: Cell Proliferation Assay (CellTiter-Glo 2.0), GP2D. The assay is classed as cell-based. The following applies: GP2D (KRAS G12D) cells; 72 hours at 37° C., 5% CO2; read-out: Anti-proliferation IC50, GP2D (KRAS G12D). Here is the method:
(§1) Two thousand KRAS mutant cells per well are seeded in 384-well white plate and then treated with indicated compounds for 72 hours at 37° C. and 5% CO2. Cell proliferation is measured using CellTiter-Glo 2.0 luciferase-based ATP detection assay (Promega, Madison, WI) following the manufacturer's protocol. IC50 values are determined using Prism software (GraphPad Software, San Diego, CA).

A further assay has as its system SW620 (KRAS G12V). Kind of assay: Cell Proliferation Assay (CellTiter-Glo 2.0), SW620. The following applies: Homo sapiens, SW-620; SW620 (KRAS G12V) cells; 72 hours at 37° C., 5% CO2; read-out: Anti-proliferation IC50, SW620 (KRAS G12V). The assay is classed as cell-based. Here is the method: as §1

On to `C#Cc1c(F)ccc2cc(O)cc(-c3nc4c5c(nc(OC[C@@]67CCCN6C[C@H](F)C7)nc5c3F)N3CCOCC[C@H]3CC4)c12` [compound 5, 5-ethynyl-6-fluoro-4-[(8aR)-4-fluoro-2-{[(2R,7aS)-2-fluorotetrahydro-1H-pyrrolizin-7a(5H)-yl]methoxy}-8,8a,9,10,12,13-hexahydro-7H-11-oxa-1,3,6,13a-tetraazanaphtho[1,8-ab]heptalen-5-yl]naphthalen-2-ol], for which the IC50 with GP2D (KRAS G12D) was 0.0042 µM; in the assay on SW620 (KRAS G12V), 0.02 µM.

Turning to `C#Cc1c(F)ccc2cc(O)cc(-c3nc4c5c(nc(OCC6(CN(C)C)CC6(F)F)nc5c3F)N3CCCCC3CC4)c12` (stereo not shown) [compound 24, 4-[2-({1-[(dimethylamino)methyl]-2,2-difluorocyclopropyl}methoxy)-4-fluoro-8,8a,9,10,11,12-hexahydro-7H-1,3,6,12a-tetraazabenzo[4,5]cyclohepta[1,2,3-de]naphthalen-5-yl]-5-ethynyl-6-fluoronaphthalen-2-ol], the IC50 in the assay with GP2D (KRAS G12D) worked out at 0.023 µM; with SW620 (KRAS G12V), 0.091 µM.

Consider `C#Cc1c(F)ccc2cc(O)cc(-c3nc4c5c(nc(OC[C@@]67CCCN6C[C@H](F)C7)nc5c3F)N3CCCC[C@H]3COC4)c12` [compound 9, 5-ethynyl-6-fluoro-4-[(6aS)-1-fluoro-12-{[(2R,7aS)-2-fluorotetrahydro-1H-pyrrolizin-7a(5H)-yl]methoxy}-6,6a,7,8,9,10-hexahydro-4H-5-oxa-3,10a,11,13-tetraazabenzo[4,5]cycloocta[1,2,3-de]naphthalen-2-yl]naphthalen-2-ol], for which the IC50 with GP2D (KRAS G12D) worked out at 0.102 µM; in the assay with SW620 (KRAS G12V) it was 0.641 µM.

With `C#Cc1c(F)ccc2cc(O)cc(-c3nc4c5c(nc(OC[C@@]67CCCN6C[C@H](F)C7)nc5c3F)N3CCCC[C@H]3C4)c12` [compound 13, 5-ethynyl-6-fluoro-4-((S)-4-fluoro-2-(((2R,7aS)-2-fluorotetrahydro-1H-pyrrolizin-7a(5H)-yl)methoxy)-7,7a,8,9,10,11-hexahydropyrido[1,2-g]pyrimido[4,5,6-de][1,6]naphthyridin-5-yl)naphthalen-2-ol], the IC50 in the assay on GP2D (KRAS G12D) was found to be 0.0039 µM; in the assay with SW620 (KRAS G12V), 0.039 µM.

Take `C#Cc1c(F)ccc2cc(O)cc(-c3nc4c5c(nc(OC[C@@]67CCCN6C[C@H](F)C7)nc5c3F)N3CCCCC3=C4C)c12` [compound 30, 5-ethynyl-6-fluoro-4-(4-fluoro-2-{[(2R,7aS)-2-fluorotetrahydro-1H-pyrrolizin-7a(5H)-yl]methoxy}-7-methyl-8,9,10,11-tetrahydropyrido[1,2-g]pyrimido[4,5,6-de][1,6]naphthyridin-5-yl)naphthalen-2-ol]: the figures for the IC50 in the assay with GP2D (KRAS G12D) and in the assay on SW620 (KRAS G12V) were 0.819 µM and 1.72 µM, respectively.
